Reference: US10259847B2, “Beta-hairpin peptidomimetics” (POLYPHOR AG, priority 2014, dated 2019)
Where a SMILES comes first, the peptide text is derived from it. Bridges are numbered along the chain shown (N, C = ends). [ ]: non-standard residue; d: D form. Tle = CC(C)(C)[C@H](N)C(=O)O; dDab = NCC[C@@H](N)C(=O)O; Orn = NCCC[C@H](N)C(=O)O; Dab = NCC[C@H](N)C(=O)O; Dap = NC[C@H](N)C(=O)O

Key:
Format in all cases: cell-based
[1] = system: human red blood cells (hRBC); test: Hemolysis of human red blood cells; conditions: red cells of human, 1 h, 100
Procedure: (§1) Stock solutions were kept at +4° C., light protected.
Percent hemolysis was calculated as follows: (OD540peptide/OD540H2O)×100%.

[2] = system: Escherichia coli ATCC 25922; conditions: ATCC 25922
Procedure: as §1
(§2) The selective antimicrobial activities of the peptides were determined in 96-well plates (Greiner, polystyrene) by the standard NCCLS broth microdilution method (National Committee for Clinical Laboratory Standards 1993. Methods for dilution antimicrobial susceptibility tests for bacteria that grow aerobically, 3rd ed. Approved standard M7-A6; National Committee for Clinical laboratory standards, Wayne, Pa.) with slight modifications. Inocula of the microorganisms were diluted into Mueller-Hinton II (MH, cation adjusted) broth and compared with a 0.5 McFarland standard to give appr. 10^6 colony forming units (CFU)/mL. Aliquots (90 μl) of inoculate were added to 10 μl of MH broth+P-80 (Polysorbate 80, 0.002% final concentration) containing the peptide in serial two-fold dilutions. The following microorganisms were used to determine antibiotic selectivity of the peptides: Escherichia coli ATCC 25922, Klebsiella pneumoniae ATCC 13883 and Acinetobacter baumannii DSM 30008.

[3] = system: Klebsiella pneumoniae ATCC 13883; conditions: ATCC 13883
Procedure: as §1, §2

[4] = system: Acinetobacter baumannii DSM 30008; conditions: DSM 30008
Procedure: as §1, §2

Structure (SMILES): CC(C)C[C@@H]1NC(=O)[C@@H]2CCCN2C(=O)[C@H]2CCCN2C(=O)[C@H](CO)NC(=O)[C@@H]2CCNC(=O)CC[C@H](NC1=O)C(=O)N[C@@H](Cc1ccc(O)cc1)C(=O)N[C@@H](CCN)C(=O)N[C@@H](CCCN)C(=O)N[C@H](CCN)C(=O)N[C@@H](CCN)C(=O)N[C@@H](Cc1c[nH]c3ccccc13)C(=O)N[C@@H](CCN)C(=O)N[C@@H](C(C)(C)C)C(=O)N2 [Example 19, cyclo(-Leu-Glu-Tyr-Dab-Orn-^DDab-Dab-Trp-Dab-tBuGly-Dab-Ser-^DPro-Pro-)] (HELM PEPTIDE1{L.E.Y.[Dab].[Orn].[NCC[C@@H](N[*:1])C(=O)[*:2]].[Dab].W.[Dab].[CC(C)(C)[C@H](N[*:1])C(=O)[*:2]].[Dab].S.[dP].P}$PEPTIDE1,PEPTIDE1,2:R3-11:R3|PEPTIDE1,PEPTIDE1,1:R1-14:R2$$$V2.0)
- Hemolysis at 100 μg/mL [1]: 0%
- Escherichia coli ATCC 25922 MIC [2]: 3 µg/mL
- Klebsiella pneumoniae ATCC 13883 MIC [3]: 8 µg/mL
- Acinetobacter baumannii DSM 30008 MIC [4]: 3 µg/mL

Structure (SMILES): CC(C)C[C@@H]1NC(=O)[C@@H]2CCCN2C(=O)[C@H]2CCCN2C(=O)[C@H](CO)NC(=O)[C@@H]2CNC(=O)C[C@H](NC1=O)C(=O)N[C@@H](Cc1ccc(O)cc1)C(=O)N[C@@H](CCN)C(=O)N[C@@H](CCCN)C(=O)N[C@H](CCN)C(=O)N[C@@H](CCN)C(=O)N[C@@H](Cc1c[nH]c3ccccc13)C(=O)N[C@@H](CCN)C(=O)N[C@@H](C(C)(C)C)C(=O)N2 [Example 21, cyclo(-Leu-Asp-Tyr-Dab-Orn-^DDab-Dab-Trp-Dab-tBuGly-Dap-Ser-^DPro-Pro-)] (cyclo(LDY[Dab][Orn][dDab][Dab]W[Dab][Tle][Dap]S[dP]P); lactam 2-11)
- Hemolysis at 100 μg/mL [1]: 1%
- Escherichia coli ATCC 25922 MIC [2]: 2 µg/mL
- Klebsiella pneumoniae ATCC 13883 MIC [3]: 0.5 µg/mL
- Acinetobacter baumannii DSM 30008 MIC [4]: 4 µg/mL

Structure (SMILES): CC(C)C[C@@H]1NC(=O)[C@@H]2CCCN2C(=O)[C@H]2CCCN2C(=O)[C@H](CO)NC(=O)[C@@H]2CCNC(=O)C[C@H](NC1=O)C(=O)N[C@@H](Cc1ccc(O)cc1)C(=O)N[C@@H](CCN)C(=O)N[C@@H](CCCN)C(=O)N[C@H](CCN)C(=O)N[C@@H](CCN)C(=O)N[C@@H](Cc1c[nH]c3ccccc13)C(=O)N[C@@H](CCN)C(=O)N[C@@H](C(C)(C)C)C(=O)N2 [Example 22, cyclo(-Leu-Asp-Tyr-Dab-Orn-^DDab-Dab-Trp-Dab-tBuGly-Dab-Ser-^DPro-Pro-)] (HELM PEPTIDE1{L.D.Y.[Dab].[Orn].[NCC[C@@H](N[*:1])C(=O)[*:2]].[Dab].W.[Dab].[CC(C)(C)[C@H](N[*:1])C(=O)[*:2]].[Dab].S.[dP].P}$PEPTIDE1,PEPTIDE1,2:R3-11:R3|PEPTIDE1,PEPTIDE1,1:R1-14:R2$$$V2.0)
- Hemolysis at 100 μg/mL [1]: 1.5%
- Escherichia coli ATCC 25922 MIC [2]: 0.5 µg/mL
- Klebsiella pneumoniae ATCC 13883 MIC [3]: 0.5 µg/mL
- Acinetobacter baumannii DSM 30008 MIC [4]: 1 µg/mL

Structure (SMILES): CC(C)C[C@@H]1NC(=O)[C@@H]2CCCN2C(=O)[C@H]2CCCN2C(=O)[C@H](CO)NC(=O)[C@@H]2CCNC(=O)C[C@H](NC1=O)C(=O)N[C@@H](Cc1ccc(O)cc1)C(=O)N[C@@H](CCN)C(=O)N[C@@H](CCCN)C(=O)N[C@@H](CCN)C(=O)N[C@@H](CCN)C(=O)N[C@@H](Cc1c[nH]c3ccccc13)C(=O)N[C@@H](CCN)C(=O)N[C@@H](C(C)(C)C)C(=O)N2 [Example 23, cyclo(-Leu-Asp-Tyr-Dab-Orn-Dab-Dab-Trp-Dab-tBuGly-Dab-Ser-^DPro-Pro-)] (HELM PEPTIDE1{L.D.Y.[Dab].[Orn].[Dab].[Dab].W.[Dab].[CC(C)(C)[C@H](N[*:1])C(=O)[*:2]].[Dab].S.[dP].P}$PEPTIDE1,PEPTIDE1,2:R3-11:R3|PEPTIDE1,PEPTIDE1,1:R1-14:R2$$$V2.0)
- Hemolysis at 100 μg/mL [1]: 0%
- Escherichia coli ATCC 25922 MIC [2]: 1 µg/mL
- Klebsiella pneumoniae ATCC 13883 MIC [3]: 0.5 µg/mL
- Acinetobacter baumannii DSM 30008 MIC [4]: 1 µg/mL

Structure (SMILES): CC(C)C[C@@H]1NC(=O)[C@@H]2CCCN2C(=O)[C@H]2CCCN2C(=O)[C@H](CO)NC(=O)[C@@H]2CCCCNC(=O)C[C@H](NC1=O)C(=O)N[C@@H](Cc1ccc(O)cc1)C(=O)N[C@@H](CCN)C(=O)N[C@@H](CCCN)C(=O)N[C@H](CCN)C(=O)N[C@@H](CCN)C(=O)N[C@@H](Cc1c[nH]c3ccccc13)C(=O)N[C@@H](CCN)C(=O)N[C@@H](C(C)(C)C)C(=O)N2 [Example 24, cyclo(-Leu-Asp-Tyr-Dab-Orn-^DDab-Dab-Trp-Dab-tBuGly-Lys-Ser-^DPro-Pro-)] (HELM PEPTIDE1{L.D.Y.[Dab].[Orn].[NCC[C@@H](N[*:1])C(=O)[*:2]].[Dab].W.[Dab].[CC(C)(C)[C@H](N[*:1])C(=O)[*:2]].K.S.[dP].P}$PEPTIDE1,PEPTIDE1,2:R3-11:R3|PEPTIDE1,PEPTIDE1,1:R1-14:R2$$$V2.0)
- Hemolysis at 100 μg/mL [1]: 0.5%
- Escherichia coli ATCC 25922 MIC [2]: 0.5 µg/mL
- Klebsiella pneumoniae ATCC 13883 MIC [3]: 0.5 µg/mL
- Acinetobacter baumannii DSM 30008 MIC [4]: 1 µg/mL

Structure (SMILES): CC(C)C[C@@H]1NC(=O)[C@@H]2CCCN2C(=O)[C@H]2CCCN2C(=O)[C@H](CO)NC(=O)[C@@H]2CCCCNC(=O)C[C@H](NC1=O)C(=O)N[C@@H](Cc1ccc(O)cc1)C(=O)N[C@@H](CCN)C(=O)N[C@@H](CCCN)C(=O)N[C@@H](CCN)C(=O)N[C@@H](CCN)C(=O)N[C@@H](Cc1c[nH]c3ccccc13)C(=O)N[C@@H](CCN)C(=O)N[C@@H](C(C)(C)C)C(=O)N2 [Example 25, cyclo(-Leu-Asp-Tyr-Dab-Orn-Dab-Dab-Trp-Dab-tBuGly-Lys-Ser-^DPro-Pro-)] (HELM PEPTIDE1{L.D.Y.[Dab].[Orn].[Dab].[Dab].W.[Dab].[CC(C)(C)[C@H](N[*:1])C(=O)[*:2]].K.S.[dP].P}$PEPTIDE1,PEPTIDE1,2:R3-11:R3|PEPTIDE1,PEPTIDE1,1:R1-14:R2$$$V2.0)
- Hemolysis at 100 μg/mL [1]: 0%
- Escherichia coli ATCC 25922 MIC [2]: 1 µg/mL
- Klebsiella pneumoniae ATCC 13883 MIC [3]: 1 µg/mL
- Acinetobacter baumannii DSM 30008 MIC [4]: 2 µg/mL

Structure (SMILES): CC(C)C[C@@H]1NC(=O)[C@@H]2CCCN2C(=O)[C@H]2CCCN2C(=O)[C@H](CO)NC(=O)[C@@H]2CCC(=O)NC[C@H](NC1=O)C(=O)N[C@@H](Cc1ccc(O)cc1)C(=O)N[C@@H](CCN)C(=O)N[C@@H](CCCN)C(=O)N[C@@H](CCN)C(=O)N[C@@H](CCN)C(=O)N[C@@H](Cc1c[nH]c3ccccc13)C(=O)N[C@@H](CCN)C(=O)N[C@@H](C(C)(C)C)C(=O)N2 [Example 26, cyclo(-Leu-Dap-Tyr-Dab-Orn-Dab-Dab-Trp-Dab-tBuGly-Glu-Ser-^DPro-Pro-)] (HELM PEPTIDE1{L.[O=C([C@H](CN[*:3])N[*:1])[*:2]].Y.[Dab].[Orn].[Dab].[Dab].W.[Dab].[CC(C)(C)[C@H](N[*:1])C(=O)[*:2]].E.S.[dP].P}$PEPTIDE1,PEPTIDE1,2:R3-11:R3|PEPTIDE1,PEPTIDE1,1:R1-14:R2$$$V2.0)
- Hemolysis at 100 μg/mL [1]: 0%
- Escherichia coli ATCC 25922 MIC [2]: 4 µg/mL
- Klebsiella pneumoniae ATCC 13883 MIC [3]: 1 µg/mL
- Acinetobacter baumannii DSM 30008 MIC [4]: 4 µg/mL

Structure (SMILES): CC(C)[C@@H]1NC(=O)[C@@H]2CCCN2C(=O)[C@H]2CCCN2C(=O)[C@H](CO)NC(=O)[C@@H]2CC(=O)NCC[C@H](NC1=O)C(=O)N[C@@H](Cc1ccc(O)cc1)C(=O)N[C@@H](CCN)C(=O)N[C@@H](CCN)C(=O)N[C@H](CCN)C(=O)N[C@@H](CCN)C(=O)N[C@@H](Cc1c[nH]c3ccccc13)C(=O)N[C@@H](CCN)C(=O)N[C@@H](C(C)(C)C)C(=O)N2 [Example 28] (HELM PEPTIDE1{V.[Dab].Y.[Dab].[Dab].[NCC[C@@H](N[*:1])C(=O)[*:2]].[Dab].W.[Dab].[CC(C)(C)[C@H](N[*:1])C(=O)[*:2]].D.S.[dP].P}$PEPTIDE1,PEPTIDE1,2:R3-11:R3|PEPTIDE1,PEPTIDE1,1:R1-14:R2$$$V2.0)
- Hemolysis at 100 μg/mL [1]: 1%
- Escherichia coli ATCC 25922 MIC [2]: 0.5 µg/mL
- Klebsiella pneumoniae ATCC 13883 MIC [3]: 0.5 µg/mL
- Acinetobacter baumannii DSM 30008 MIC [4]: 2 µg/mL

Structure (SMILES): CC(C)C[C@@H]1NC(=O)[C@@H]2CCCN2C(=O)[C@H]2CCCN2C(=O)[C@H](CO)NC(=O)[C@@H]2CCC(=O)NC[C@H](NC1=O)C(=O)N[C@@H](Cc1ccc(O)cc1)C(=O)N[C@@H](CCN)C(=O)N[C@@H](CCCN)C(=O)N[C@H](CCN)C(=O)N[C@@H](CCN)C(=O)N[C@@H](Cc1c[nH]c3ccccc13)C(=O)N[C@@H](CCN)C(=O)N[C@@H](C(C)(C)C)C(=O)N2 [Example 29, cyclo(-Leu-Dap-Tyr-Dab-Orn-^DDab-Dab-Trp-Dab-tBuGly-Glu-Ser-^DPro-Pro-)] (cyclo(L[Dap]Y[Dab][Orn][dDab][Dab]W[Dab][Tle]ES[dP]P); lactam 2-11)
- Hemolysis at 100 μg/mL [1]: 0.5%
- Escherichia coli ATCC 25922 MIC [2]: 1 µg/mL
- Klebsiella pneumoniae ATCC 13883 MIC [3]: 0.5 µg/mL
- Acinetobacter baumannii DSM 30008 MIC [4]: 1 µg/mL
